Source: US20070049564A1 (Wyeth, priority 2005, published 2007)
Read-outs that look alike come from different tables or passages of the source.

Legend:
[1] = system: E. coli GC 2231; test: MIC, broth microdilution; conditions: Escherichia coli, GC2231, E. coli GC 2231
[2] = system: E. coli GC 2235; test: MIC, broth microdilution; conditions: Escherichia coli, GC2235, E. coli GC 2235
Protocol: (§1) Antimicrobial susceptibility testing. The in vitro activities of the antibiotics are determined by the broth microdilution method as recommended by the National Committee for Clinical Laboratory Standards (NCCLS) (1). Mueller-Hinton II broth (MHBII)(BBL Cockeysville, Md.) is the medium employed in the testing procedures. Microtiter plates containing serial dilutions of each antimicrobial agent are inoculated with each organism to yield the appropriate density (10^5 CFU/ml) in a 100 μl final volume. The plates are incubated for 18-22 hours at 35° C. in ambient air.
(§2) Representative compounds were first incubated in mouse serum for an hour prior to the in vitro testing against a panel of selected gram-positive and gram-negative bacteria strains. All compounds were also pre-incubated in water for an hour prior to testing as control. Representative compounds of Formula I were incubated in human serum prior to MIC determination.

[3] = system: E. coli GC 2232; test: MIC, broth microdilution; conditions: Escherichia coli, GC2232, E. coli GC 2232
[4] = system: E. coli GC 2270; test: MIC, broth microdilution; conditions: Escherichia coli, GC2270, E. coli GC 2270
Protocol: as §1, §2

[5] = system: E. coli GC 2271; test: MIC, broth microdilution; conditions: Escherichia coli, GC2271, E. coli GC 2271
[6] = system: E. coli GC 4559; test: MIC, broth microdilution; conditions: Escherichia coli, GC4559, E. coli GC 4559
[7] = system: E. coli GC 4560; test: MIC, broth microdilution; conditions: Escherichia coli, GC4560, E. coli GC 4560
[8] = system: E. coli GC 3226; test: MIC, broth microdilution; conditions: Escherichia coli, GC3226, E. coli GC 3226
[9] = system: E. coli GC 2203; test: MIC, broth microdilution; conditions: Escherichia coli, GC2203, E. coli GC 2203
[10] = system: S. typhimurium GC 2172; test: MIC, broth microdilution; conditions: Salmonella enterica, TYPHIMURIUM, S. typhimurium GC 2172
[11] = system: P. aeruginosa GC 2214; test: MIC, broth microdilution; conditions: Pseudomonas aeruginosa, GC2214, P. aeruginosa GC 2214
Protocol: as §1
Representative compounds were first incubated in mouse serum for an hour prior to the in vitro testing against a panel of selected gram-positive and gram-negative bacteria strains. All compounds were also pre-incubated in water for an hour prior to testing as control.

[12] = system: S. aureus GC 6467; test: MIC, broth microdilution; conditions: Staphylococcus aureus, GC6467, S. aureus GC 6467
[13] = system: S. aureus GC 2216; test: MIC, broth microdilution; conditions: Staphylococcus aureus, GC2216, S. aureus GC 2216
[14] = system: S. aureus GC 6335; test: MIC, broth microdilution; conditions: Staphylococcus aureus, GC6335, S. aureus GC 6335
[15] = system: E. faecalis GC 2267; test: MIC, broth microdilution; conditions: Enterococcus faecalis, GC2267, E. faecalis GC 2267
[16] = system: E. faecalis GC 2242; test: MIC, broth microdilution; conditions: Enterococcus faecalis, GC2242, E. faecalis GC 2242
[17] = system: E. faecium GC 4556; test: MIC, broth microdilution; conditions: Enterococcus faecium, GC4556, E. faecium GC 4556
[18] = system: S. pneumoniae* GC 4465; test: MIC, broth microdilution; conditions: Streptococcus pneumoniae, S. pneumoniae* GC 4465
[19] = system: S. agalactiae GC 4564; test: MIC, broth microdilution; conditions: Streptococcus agalactiae, GC4564, S. agalactiae GC 4564
[20] = system: Staph. aureus Smith; test: In vivo activity (oral, iv; ED50) against Staph. aureus Smith in mice
Protocol: Representative examples of compounds of Formula I were tested for the oral efficacy using S. aureus Smith in mice.

[21] = Staphylococcus aureus, in Mus musculus, po, read-out: ED50 Staph Smith SOD
[22] = iv, read-out: ED50 Staph Smith SIV

CCCCN(CC(=O)Nc1cc(N(C)C)c2c(c1O)C(=O)C1=C(O)[C@]3(O)C(=O)C(C(N)=O)=C(O)[C@@H](N(C)C)C3CC1C2)C(=O)OCOC(=O)c1ccc(C)cc1 (stereo partly drawn) [Example 3, ({[(2-{[(7S,10aS)-9-(aminocarbonyl)-4,7-bis(dimethylamino)-1,8,10a,11-tetrahydroxy-10,12-dioxo-5,5a,6,6a,7,10,10a,12-octahydrotetracen-2-yl]amino}-2-oxoethyl)(butyl)amino]carbonyl}oxy)methyl 4-methylbenzoate]
0.25 µg/mL: MIC ([18]; Water pre-incubation)
> 64 µg/mL: MIC ([1]; Water pre-incubation) | MIC ([2]; Water pre-incubation) | MIC ([3]; Water pre-incubation) | MIC ([4]; Water pre-incubation) | MIC ([5]; Water pre-incubation) | MIC ([6]; Water pre-incubation) | MIC ([8]; Water pre-incubation) | MIC ([9]; Water pre-incubation) | MIC ([10]; Water pre-incubation) | MIC ([11]; Water pre-incubation)
8 µg/mL: MIC ([10]; Mouse Serum pre-incubation) | MIC ([14]; Water pre-incubation)
0.5 µg/mL: MIC ([7]; Mouse Serum pre-incubation)
0.59 mg/kg: ED50 [20, 22]
1 µg/mL: MIC ([2]; Mouse Serum pre-incubation) | MIC ([4]; Mouse Serum pre-incubation) | MIC ([5]; Mouse Serum pre-incubation) | MIC ([9]; Mouse Serum pre-incubation) | MIC ([13]; Mouse Serum pre-incubation) | MIC ([19]; Mouse Serum pre-incubation)
0.12 µg/mL: MIC ([18]; Mouse Serum pre-incubation)
4 µg/mL: MIC ([12]; Mouse Serum pre-incubation) | MIC ([13]; Water pre-incubation)
16 µg/mL: MIC ([16]; Water pre-incubation) | MIC ([17]; Water pre-incubation)
16.1 mg/kg: ED50 [20, 21]
32 µg/mL: MIC ([7]; Water pre-incubation) | MIC ([11]; Mouse Serum pre-incubation) | MIC ([12]; Water pre-incubation) | MIC ([15]; Water pre-incubation)
2 µg/mL: MIC ([1]; Mouse Serum pre-incubation) | MIC ([3]; Mouse Serum pre-incubation) | MIC ([6]; Mouse Serum pre-incubation) | MIC ([8]; Mouse Serum pre-incubation) | MIC ([14]; Mouse Serum pre-incubation) | MIC ([15]; Mouse Serum pre-incubation) | MIC ([16]; Mouse Serum pre-incubation) | MIC ([17]; Mouse Serum pre-incubation) | MIC ([19]; Water pre-incubation)

CCCCN(CC(=O)Nc1cc(N(C)C)c2c(c1O)C(=O)C1=C(O)[C@]3(O)C(=O)C(C(N)=O)=C(O)[C@@H](N(C)C)[C@@H]3C[C@@H]1C2)C(=O)OCOC(=O)c1ccc(F)cc1 [Example 4, ({[(2-{[(5aR,6aS,7S,10aS)-9-(aminocarbonyl)-4,7-bis(dimethylamino)-1,8,10a,11-tetrahydroxy-10,12-dioxo-5,5a,6,6a,7,10,10a,12-octahydrotetracen-2-yl]amino}-2-oxoethyl)(butyl)amino]carbonyl}oxy)methyl 4-fluorobenzoate]
0.5 µg/mL: MIC ([5]; Mouse Serum pre-incubation) | MIC ([13]; Mouse Serum pre-incubation) | MIC ([19]; Water pre-incubation)
4 µg/mL: MIC ([10]; Mouse Serum pre-incubation) | MIC ([13]; Water pre-incubation) | MIC ([14]; Water pre-incubation) | MIC ([16]; Water pre-incubation) | MIC ([17]; Water pre-incubation)
0.25 µg/mL: MIC ([7]; Mouse Serum pre-incubation) | MIC ([19]; Mouse Serum pre-incubation)
0.12 µg/mL: MIC ([18]; Water pre-incubation)
0.39 mg/kg: ED50 [20, 22]
11.6 mg/kg: ED50 [20, 21]
1 µg/mL: MIC ([1]; Mouse Serum pre-incubation) | MIC ([2]; Mouse Serum pre-incubation) | MIC ([3]; Mouse Serum pre-incubation) | MIC ([4]; Mouse Serum pre-incubation) | MIC ([9]; Mouse Serum pre-incubation) | MIC ([14]; Mouse Serum pre-incubation) | MIC ([15]; Mouse Serum pre-incubation) | MIC ([16]; Mouse Serum pre-incubation) | MIC ([17]; Mouse Serum pre-incubation)
8 µg/mL: MIC ([7]; Water pre-incubation) | MIC ([12]; Water pre-incubation) | MIC ([15]; Water pre-incubation)
< 0.06 µg/mL: MIC ([18]; Mouse Serum pre-incubation)
> 64 µg/mL: MIC ([6]; Water pre-incubation) | MIC ([10]; Water pre-incubation) | MIC ([11]; Water pre-incubation)
32 µg/mL: MIC ([11]; Mouse Serum pre-incubation)
2 µg/mL: MIC ([6]; Mouse Serum pre-incubation) | MIC ([8]; Mouse Serum pre-incubation) | MIC ([12]; Mouse Serum pre-incubation)
64 µg/mL: MIC ([1]; Water pre-incubation) | MIC ([2]; Water pre-incubation) | MIC ([3]; Water pre-incubation) | MIC ([4]; Water pre-incubation) | MIC ([5]; Water pre-incubation) | MIC ([8]; Water pre-incubation) | MIC ([9]; Water pre-incubation)
